From ChEMBL document CHEMBL4342457, “Clerodane Diterpenoids Isolated from the Leaves of Casearia graveolens” (J Nat Prod, 2020) come the findings set out here.

pIC50: −log10 of the molar value.

In test [1] the test system is HepG2. In words: Cytotoxicity against human HepG2 cells after 48 hrs by MTT assay. It counts as functional, cell-based. Particulars: HepG2, 48 h.
Test [2] relates to A549. As to the kind of experiment: Cytotoxicity against human A549 cells after 48 hrs by MTT assay. It counts as functional, cell-based. As to conditions: A549, 48 h.
The subject of test [3] is A549. As to the kind of experiment: Induction of cell cycle arrest in human A549 cells assessed as accumulation at G2 phase at 1 uM incubated for 48 hrs by propidium iodide staining based flow cytometry (reference value: 30.41%). It counts as functional.
For test [4], the system named is A549. In words: Induction of cell cycle arrest in human A549 cells assessed as accumulation at S phase at 1.5 uM incubated for 48 hrs by propidium iodide staining based flow cytometry (reference value: 39.99%). It counts as functional.
The test system of test [5] is A549. As to the kind of experiment: Induction of cell cycle arrest in human A549 cells assessed as accumulation at G2 phase at 2 uM incubated for 48 hrs by propidium iodide staining based flow cytometry (reference value: 30.41%). It counts as functional.
For test [6], the system named is A549. In words: Induction of cell cycle arrest in human A549 cells assessed as accumulation at S phase at 1 uM incubated for 48 hrs by propidium iodide staining based flow cytometry (reference value: 39.99%). It counts as functional. For orientation: A flow cytometer gives signals particle by particle.
In test [7] the test system is A549. As to the kind of experiment: Induction of cell cycle arrest in human A549 cells assessed as accumulation at S phase at 2 uM incubated for 48 hrs by propidium iodide staining based flow cytometry (reference value: 39.99%). It counts as functional.
In test [8] the test system is A549. In words: Induction of apoptosis human A549 cells assessed as early apoptotic cells at 4 uM after 48 hrs by Annexin V-FITC/PI double staining based flow cytometric analysis (reference value: 4.3%). It counts as functional.
For test [9], the system named is A549. As to the kind of experiment: Induction of apoptosis human A549 cells assessed as live cells at 1 uM after 48 hrs by Annexin V-FITC/PI double staining based flow cytometric analysis (reference value: 88%). It counts as functional.
For test [10], the system named is A549. As to the kind of experiment: Induction of cell cycle arrest in human A549 cells assessed as accumulation at G1 phase at 2 uM incubated for 48 hrs by propidium iodide staining based flow cytometry (reference value: 29.60%). It counts as functional.
In test [11] the test system is A549. As to the kind of experiment: Induction of apoptosis human A549 cells assessed as necrotic cells at 4 uM after 48 hrs by Annexin V-FITC/PI double staining based flow cytometric analysis (reference value: 0.3%). It counts as functional.
In test [12] the test system is A549. As to the kind of experiment: Induction of apoptosis human A549 cells assessed as late apoptotic cells at 2 uM after 48 hrs by Annexin V-FITC/PI double staining based flow cytometric analysis (reference value: 7.4%). It counts as functional.
Test [13] has as its system A549. In words: Induction of apoptosis human A549 cells assessed as live cells at 2 uM after 48 hrs by Annexin V-FITC/PI double staining based flow cytometric analysis (reference value: 88%). It counts as functional.
Test [14] concerns A549. As to the kind of experiment: Induction of apoptosis human A549 cells assessed as late apoptotic cells at 4 uM after 48 hrs by Annexin V-FITC/PI double staining based flow cytometric analysis (reference value: 7.4%). It counts as functional.
Test [15] deals with A549. As to the kind of experiment: Induction of apoptosis human A549 cells assessed as necrotic cells at 1 uM after 48 hrs by Annexin V-FITC/PI double staining based flow cytometric analysis (reference value: 0.3%). It counts as functional.
Test [16] has as its system A549. In words: Induction of cell cycle arrest in human A549 cells assessed as accumulation at G1 phase at 1.5 uM incubated for 48 hrs by propidium iodide staining based flow cytometry (reference value: 29.60%). It counts as functional.
Test [17] concerns A549. As to the kind of experiment: Induction of apoptosis human A549 cells after 48 hrs by Annexin V-FITC/PI double staining based flow cytometric analysis. It counts as functional, cell-based.
Test [18] relates to A549. In words: Induction of cell cycle arrest in human A549 cells assessed as accumulation at G1 phase at 1 uM incubated for 48 hrs by propidium iodide staining based flow cytometry (reference value: 29.60%). It counts as functional.
Test [19] concerns A549. In words: Induction of cell cycle arrest in human A549 cells assessed as accumulation at G2 phase at 1.5 uM incubated for 48 hrs by propidium iodide staining based flow cytometry (reference value: 30.41%). It counts as functional.
Test [20] deals with A549. In words: Induction of apoptosis human A549 cells assessed as early apoptotic cells at 2 uM after 48 hrs by Annexin V-FITC/PI double staining based flow cytometric analysis (reference value: 4.3%). It counts as functional.
Test [21] concerns A549. In words: Induction of apoptosis human A549 cells assessed as early apoptotic cells at 1 uM after 48 hrs by Annexin V-FITC/PI double staining based flow cytometric analysis (reference value: 4.3%). It counts as functional.
Test [22] concerns A549. As to the kind of experiment: Induction of apoptosis human A549 cells assessed as necrotic cells at 2 uM after 48 hrs by Annexin V-FITC/PI double staining based flow cytometric analysis (reference value: 0.3%). It counts as functional.
The subject of test [23] is A549. As to the kind of experiment: Induction of apoptosis human A549 cells assessed as late apoptotic cells at 1 uM after 48 hrs by Annexin V-FITC/PI double staining based flow cytometric analysis (reference value: 7.4%). It counts as functional.
Test [24] concerns A549. In words: Induction of apoptosis human A549 cells assessed as live cells at 4 uM after 48 hrs by Annexin V-FITC/PI double staining based flow cytometric analysis (reference value: 88%). It counts as functional.

Take `C=C/C(C)=C/C[C@]1(C)[C@H](C)C[C@H](O)[C@@]23C(=C[C@H](OC(=O)CC(C)C)C[C@@H]12)[C@@H](OC)O[C@H]3OC(C)=O`: the pIC50 in [1] and in [2] was less than 5.00 in each case.

Regarding `COC(=O)C[C@](O)(CCCC(C)(C)O)C(=O)O[C@@H]1C(OC)=C[C@]23CCCN2CCc2cc4c(cc2[C@H]13)OCO4` [OMACETAXINE MEPESUCCINATE], the pIC50 in [1] was 7.46; in test [2], 7.50.

Turning to `C=C/C(C)=C/C[C@]1(C)[C@H](C)C[C@H](O)[C@@]23C(=C[C@H](OC(=O)CC(C)C)C[C@@H]12)[C@@H](OC(C)=O)O[C@H]3OC(C)=O`, the Activity in test [3] was 9.01%; in test [4], 25.39%; in [5], 5.19%; in test [6] it was 20.75%; in test [7], 15.37%; in [8], 15%. Further, the Activity in [9] worked out at 74.5%; in [10] it was 79.44%; in test [11], 5.1%; in [12] it was 19.9%; in [13], 52.7%; in test [14] it was 74.5%. For the same compound, the Activity in test [15] is 1.1%; in test [16] it was 70.31%; in [17] it was “Dose-dependent effect”; in test [18] it was 70.25%; in [19] it was 4.3%; in test [20] it was 26.7%. Moreover, the Activity came out at 6.2% in test [21], 0.8% in [22], 18.2% in test [23] and 5.4% in test [24]. Further, the values for the pIC50 in test [1] and in [2] were 5.34 and 5.72, respectively.

Regarding `C=C/C(C)=C/C[C@]1(C)[C@H](C)C[C@H](O)[C@@]23C(=C[C@H](OC(=O)C(C)CC)C[C@@H]12)[C@@H](OC)O[C@H]3OC(C)=O` (some centres not stated), the negative-log IC50 (pIC50) in [1] and in test [2] was less than 5.00 each time.

Turning to `C=C/C(C)=C/C[C@]1(C)[C@H](C)C[C@H](O)[C@@]23C(=C[C@H](OC(=O)C(C)C)C[C@@H]12)[C@@H](OC)O[C@H]3OC(C)=O`, the pIC50 in [1] and in test [2] was less than 5.00 throughout.

`C=C/C(C)=C/C[C@]1(C)[C@H](C)C[C@H](O)[C@@]23C(=C[C@H](OC(=O)CC(C)C)C[C@@H]12)[C@@H](OC)O[C@H]3OC`: the pIC50 in test [1] and in test [2] was less than 5.00 each time.

With `C=C/C(C)=C/C[C@]1(C)[C@H](C)C[C@H](O)[C@@]23C(=C[C@@H](OC(=O)C(C)CC)C[C@@H]12)[C@@H](OC)O[C@H]3OC(C)=O` (some centres not stated), the pIC50 in [1] and in [2] was less than 5.00 throughout.

For the compound `C=C/C(C)=C/C[C@]1(C)[C@H](C)C[C@H](O)[C@@]23C(=C[C@H](OC(=O)C(C)C)C[C@@H]12)[C@@H](OC)O[C@H]3OC`, the negative logarithm of the IC50 (pIC50) in test [1] and in test [2] was less than 5.00 in each case.

Turning to `C=C/C(C)=C/C[C@]1(C)[C@H](C)C[C@H](O)[C@@]23C(=C[C@H](OC(=O)C(C)C)C[C@@H]12)[C@@H](OC)O[C@@H]3OC(C)=O`, the pIC50 in [1] and in test [2] was less than 5.00 in each case.

Turning to `C=C/C(C)=C/C[C@]1(C)[C@H](C)C[C@H](O)[C@@]23C(=C[C@@H](OC(C)=O)C[C@@H]12)[C@@H](OC)O[C@H]3OC(C)=O`, the pIC50 in test [1] and in test [2] was less than 5.00 each time.

For orientation: pIC50 means the IC50 on a negative log10 scale, so that one unit is a factor of ten. Read a low pIC50 as a high IC50.
